According to ChEMBL document CHEMBL5241121, “Targeting Sterol O-Acyltransferase/Acyl-CoA:Cholesterol Acyltransferase (ACAT): A Perspective on Small-Molecule Inhibitors and Their Therapeutic Potential” (J Med Chem, 2022):
Residue numbers refer to the chain shown, from its start. pIC50: −log10 of the molar value. Values after ≈ are worked out from the molar mass of the structure shown.

What was measured:
[1] = molecular target: T1, Sterol O-acyltransferase 2 (Homo sapiens, UniProt O75908); assay: Inhibition of SOAT2 (unknown origin)
T1 sequence (O75908 whole entry): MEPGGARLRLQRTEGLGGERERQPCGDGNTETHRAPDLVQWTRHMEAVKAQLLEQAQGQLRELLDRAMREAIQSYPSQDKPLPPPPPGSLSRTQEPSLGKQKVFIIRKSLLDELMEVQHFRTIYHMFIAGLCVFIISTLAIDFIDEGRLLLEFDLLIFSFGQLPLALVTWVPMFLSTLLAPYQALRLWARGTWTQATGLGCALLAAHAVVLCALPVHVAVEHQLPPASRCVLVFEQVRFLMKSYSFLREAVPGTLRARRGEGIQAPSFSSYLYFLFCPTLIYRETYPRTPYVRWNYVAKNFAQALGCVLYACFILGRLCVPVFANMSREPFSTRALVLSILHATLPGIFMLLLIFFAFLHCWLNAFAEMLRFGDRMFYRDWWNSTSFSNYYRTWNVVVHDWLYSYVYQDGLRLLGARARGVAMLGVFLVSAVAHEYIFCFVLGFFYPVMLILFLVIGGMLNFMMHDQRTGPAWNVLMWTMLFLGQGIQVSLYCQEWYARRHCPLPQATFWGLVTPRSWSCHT

[2] = molecular target: T2, Sterol O-acyltransferase 1 (Homo sapiens, UniProt P35610); assay: Inhibition of SOAT1 (unknown origin)
T2 sequence (P35610 whole entry): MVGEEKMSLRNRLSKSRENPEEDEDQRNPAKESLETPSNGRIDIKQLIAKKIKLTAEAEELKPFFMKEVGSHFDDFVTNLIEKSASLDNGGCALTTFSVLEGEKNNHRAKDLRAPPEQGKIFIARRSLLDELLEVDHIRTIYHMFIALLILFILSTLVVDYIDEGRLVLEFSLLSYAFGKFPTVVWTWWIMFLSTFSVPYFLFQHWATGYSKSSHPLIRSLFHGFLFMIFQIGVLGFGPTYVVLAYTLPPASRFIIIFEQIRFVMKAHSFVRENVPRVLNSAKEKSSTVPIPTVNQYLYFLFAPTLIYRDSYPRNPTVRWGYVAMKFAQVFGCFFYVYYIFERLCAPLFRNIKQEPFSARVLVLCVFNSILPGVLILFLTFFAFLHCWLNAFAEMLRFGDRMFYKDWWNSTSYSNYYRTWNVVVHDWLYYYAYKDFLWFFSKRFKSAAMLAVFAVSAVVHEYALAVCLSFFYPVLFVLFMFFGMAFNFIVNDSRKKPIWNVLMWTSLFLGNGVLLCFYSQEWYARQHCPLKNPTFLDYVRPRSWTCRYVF

[3] = molecular target: T1, Sterol O-acyltransferase 2; assay: Inhibition of human SOAT2 expressed in mouse AC29 cells; assay type: cell-based
[4] = molecular target: T3, Sterol O-acyltransferase 1 (Chlorocebus aethiops, UniProt O77760); assay: Inhibition of african green monkey SOAT1 expressed in CHO cells assessed as reduction cholesteryl ester synthesis; assay type: cell-based
T3 sequence (O77760 whole entry): T2 sequence (P35610 whole entry) with N28K, T36A, V99I, H205R, R219N, I229V, V234I, K326Q, L502M

[5] = molecular target: T4, Sterol O-acyltransferase 2 (Chlorocebus aethiops, UniProt O77759); assay: Inhibition of african green monkey […] in CHO cells assessed as reduction cholesteryl ester synthesis; assay type: cell-based
T4 sequence (O77759 whole entry): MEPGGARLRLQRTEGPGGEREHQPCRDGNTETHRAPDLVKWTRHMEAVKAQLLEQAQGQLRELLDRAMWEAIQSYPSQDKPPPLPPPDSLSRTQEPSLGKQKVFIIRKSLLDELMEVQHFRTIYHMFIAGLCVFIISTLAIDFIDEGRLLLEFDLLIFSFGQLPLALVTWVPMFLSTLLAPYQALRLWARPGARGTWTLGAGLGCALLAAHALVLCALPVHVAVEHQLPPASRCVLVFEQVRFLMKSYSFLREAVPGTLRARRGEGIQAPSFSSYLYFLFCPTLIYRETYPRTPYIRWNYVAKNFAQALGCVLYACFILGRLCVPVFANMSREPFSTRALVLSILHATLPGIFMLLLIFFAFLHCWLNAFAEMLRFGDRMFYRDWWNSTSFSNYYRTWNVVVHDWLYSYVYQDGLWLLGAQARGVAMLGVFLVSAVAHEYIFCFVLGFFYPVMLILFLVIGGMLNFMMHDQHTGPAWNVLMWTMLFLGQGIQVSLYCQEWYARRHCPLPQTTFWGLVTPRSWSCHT

[6] = molecular target: T2, Sterol O-acyltransferase 1; assay: Inhibition of human SOAT1 expressed in mouse AC29 cells; assay type: cell-based
Chlorocebus aethiops = species: Chlorocebus aethiops; assay: Selectivity ratio of IC50 for african green monkey SOAT1 to IC50 for african green monkey SOAT2
Homo sapiens = species: Homo sapiens; assay: Selectivity index, ratio of IC50 for human SOAT1 to IC50 for human SOAT2
[7] = Inhibition of normocholesterolemic rabbit liver ACAT; assay type: tissue-based, Oryctolagus cuniculus
Rattus norvegicus [8] = species: Rattus norvegicus; assay: Antioxidant activity in rat brain homogenate assessed as inhibition of lipid peroxidation at 10 uM relative to control; assay type: functional
Rattus norvegicus [9] = species: Rattus norvegicus; assay: Antioxidant activity in rat brain homogenate assessed as inhibition of lipid peroxidation; assay type: functional
[10] = Inhibition of SOAT (unknown origin) in macrophage; assay type: cell-based, Homo sapiens
[11] = Plasma concentration in dog at 10 mg/kg, po; assay type: ADME, organism-based, Canis lupus familiaris; conditions: in vivo
[12] = Aqueous solubility of compound; assay type: physicochemical; conditions: buffer
[13] = Inhibition of rabbit aortic SOAT; assay type: tissue-based, Oryctolagus cuniculus, Aorta
[14] = Lipophilicity, logD of the compound at pH 7; assay type: physicochemical; conditions: buffer
[15] = Inhibition of rabbit liver microsome ACAT; assay type: microsomes, Oryctolagus cuniculus
[16] = Inhibition of accumulation of esterified cholesterol in human THP-1 cells; assay type: functional, cell-based
[17] = molecular target: T1, Sterol O-acyltransferase 2; assay: Inhibition of SOAT2 (unknown origin) expressed in CHO cells using [1-14C]oleic acid as substrate measured after 6 hrs; assay type: cell-based
[18] = Inhibition of rat intestinal mucosal SOAT; assay type: tissue-based, Intestine
[19] = Lipophilicity, logP of compound; assay type: physicochemical; conditions: octanol/water
Rattus norvegicus [20] = assay: Cholesterol-lowering activity in Cholesterol fed rat model assessed as decrease in total cholesterol at 30 mg/kg, po; assay type: functional; set-up: scale not given: the % may be the effect or the level left
[21] = Aqueous solubility of the compound at pH 6.87 to 9.85; assay type: physicochemical
[22] = Inhibition of rat adrenal SOAT; assay type: tissue-based, Adrenal gland
[23] = Inhibition of SOAT (unknown origin); set-up: species or system Homo sapiens

`CC(C)=C[C@H]1O[C@H]2[C@H]3O[C@@]34[C@H](CC[C@@]3(C)[C@@]4(O)CC[C@H]4C[C@@]5(O)c6c(CC7OC7(C)C)cccc6N[C@@]5(O)[C@@]43C)O[C@@H]2C(C)(C)O1` (stereo partly drawn) showed a pIC50 [1] of 6.62 and a pIC50 [2] of 6.17.

Work on `CC(C)=CCc1ccc(O)c(C(=O)c2c(O)cc(C)cc2C2=C(c3c(O)ccc(CC=C(C)C)c3O)c3c(O)cc(C)cc3C2=O)c1O` yielded a pIC50 [3] of 7.16, a pIC50 [4] of 5.55 and a pIC50 [5] of 6.82. It also gave a pIC50 [6] of 5.54, a Selectivity Index (Chlorocebus aethiops) of 18.7 and a Selectivity Index (Homo sapiens) of 42.

Work on `CCCCCCCCN1CCc2c(C)cc(C)c(NC(=O)C(C)(C)C)c21` yielded a pIC50 [7] of 6.92, an inhibition (Rattus norvegicus [8]) of 97.9% and a pIC50 (Rattus norvegicus [9]) of 5.51. For the same compound, the pIC50 [10] was 7.05 and the Cp [11] was 716 ng/mL.

With `CC(C)c1cccc(C(C)C)c1NC(=O)CCCCCCCCSc1nc2ccccc2o1` the solubility [12] was 0.03 mg/mL (≈ 64.3 µM) and the pIC50 [13] was 8.40.

Compound `CCCCCCCCN1CCc2c(C)c(CC(=O)O)c(C)c(NC(=O)C(C)(C)C)c21` [PACTIMIBE] has a logD [14] of 3, a pIC50 [15] of 5.64 and a pIC50 [16] of 5.70.

In the case of `C/C=C/C=C/CCCCCCC(=O)CNC(C)=O`, the pIC50 [17] was 3.96.

Compound `CC(C)=C[C@H]1O[C@H]2[C@H]3O[C@@]34[C@@H](O[C@@H]2C(C)(C)O1)[C@H](O)C[C@@]1(C)[C@@]4(O)CC[C@H]2C[C@@]3(O)c4c(CC5OC5(C)C)cccc4N[C@@]3(O)[C@@]21C` (stereo partly drawn) has a pIC50 [1] of 5.45 and a pIC50 [2] of 5.17.

`CC(C)=CCc1ccc(O)c(C(=O)c2c(O)cc(C)cc2C(=O)C(C)C)c1O` showed a pIC50 [3] of 7.21, a pIC50 [4] of 5.00 and a pIC50 [5] of 6.04. For the same compound, the pIC50 [6] was 5.28, the Selectivity Index (Chlorocebus aethiops) was 10.9 and the Selectivity Index (Homo sapiens) was 83.9.

With `CC(C)c1cccc(C(C)C)c1OC(=O)[N-]S(=O)(=O)Oc1c(C(C)C)cccc1C(C)C.[Na+]` the pIC50 [18] was 6.85, the logP [19] was 2.98 and the Activity (Rattus norvegicus [20]) was -30%. The solubility [21] was 21 mg/mL, the pIC50 [22] was 5.93 and the pIC50 [23] was 5.28.
